Data published in ChEMBL document CHEMBL3217519, “A self-immolative dendritic glucuronide prodrug of doxorubicin” (Medchemcomm, 2012).
Active and inactive are the calls of the source. The rule behind the calls is not given here.

Legend:
[1] = Stability of the compound in 0.02M phosphate buffer assessed as drug decomposition at 0.06 umol at pH 7 after 10 days by HPLC analysis; type: physicochemical; settings: pH 7, 240 h
Serum = assay: Stability of the compound in bovine serum assessed as drug degradation at 37 degC measured for 24 hrs; type: ADME, Bos taurus; settings: cattle
Beta-glucuronidase = Beta-glucuronidase (Escherichia coli (strain K12), UniProt P05804); assay: Prodrug activation in phosphate buffer assessed as Escherichia coli beta-glucuronidase-catalysed release of doxorubicin at 0.06 umol at pH 7 after 6 hrs by HPLC analysis; settings: isolated protein, pH 7, 6 h
Chain of Beta-glucuronidase (P05804 whole entry): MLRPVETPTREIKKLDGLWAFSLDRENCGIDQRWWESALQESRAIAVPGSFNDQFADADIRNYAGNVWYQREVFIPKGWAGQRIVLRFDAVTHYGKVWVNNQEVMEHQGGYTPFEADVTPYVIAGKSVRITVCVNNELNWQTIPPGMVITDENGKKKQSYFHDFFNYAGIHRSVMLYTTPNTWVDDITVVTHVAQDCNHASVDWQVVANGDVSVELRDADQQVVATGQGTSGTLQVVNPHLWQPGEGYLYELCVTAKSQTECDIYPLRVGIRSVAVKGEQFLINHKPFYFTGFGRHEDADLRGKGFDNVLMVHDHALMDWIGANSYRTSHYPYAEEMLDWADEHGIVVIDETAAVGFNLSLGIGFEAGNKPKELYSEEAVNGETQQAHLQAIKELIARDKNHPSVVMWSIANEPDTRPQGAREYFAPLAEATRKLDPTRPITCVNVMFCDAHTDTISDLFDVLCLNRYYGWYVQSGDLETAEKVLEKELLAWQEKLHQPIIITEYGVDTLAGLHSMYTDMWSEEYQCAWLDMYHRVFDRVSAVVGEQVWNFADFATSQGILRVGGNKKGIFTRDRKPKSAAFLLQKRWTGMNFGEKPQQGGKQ

NCI-H661 [2] = assay: Antiproliferative activity against human NCI-H661 cells assessed as inhibition of cell viability at 1000 nM after 3 days by XTT assay; type: functional, cell-based
NCI-H661 [3] = assay: Antiproliferative activity against human NCI-H661 cells assessed as inhibition of cell viability after 3 days by XTT assay in presence of beta-glucuronidase; type: functional, cell-based; settings: NCI-H661, 72 h
NCI-H661 [4] = assay: Ratio of HMR1826 IC50 to compound IC50 for human NCI-H661 cells in presence of beta-glucuronidase; type: functional

| Stability [1] | Stability (Serum) | Drug metabolism (Beta-glucuronidase) | IC50 (NCI-H661 [3]) [nM] | Compound | inhibition (NCI-H661 [2]) | Ratio IC50 (NCI-H661 [4]) |
| --- | --- | --- | --- | --- | --- | --- |
| Stable | Stable | Active | 110 | COc1cccc2c1C(=O)c1c(O)c3c(c(O)c1C2=O)C[C@@](O)(C(=O)CO)C[C@@H]3O[C@H]1C[C@H](NC(=O)OCc2ccc(NC(=O)OCc3ccc(O[C@@H]4O[C@H](C(=O)O)[C@@H](O)[C@H](O)[C@H]4O)c([N+](=O)[O-])c3)c(COC(=O)N[C@H]3C[C@H](O[C@H]4C[C@](O)(C(=O)CO)Cc5c(O)c6c(c(O)c54)C(=O)c4c(OC)cccc4C6=O)O[C@@H](C)[C@H]3O)c2)[C@H](O)[C@H](C)O1 | inactive | 2 |
|  |  |  | 280 | COc1cccc2c1C(=O)c1c(O)c3c(c(O)c1C2=O)C[C@@](O)(C(=O)CO)C[C@@H]3O[C@H]1C[C@H](NC(=O)OCc2ccc(O[C@@H]3O[C@H](C(=O)O)[C@@H](O)[C@H](O)[C@H]3O)c([N+](=O)[O-])c2)[C@H](O)[C@H](C)O1 |  |  |
|  |  |  | 250 | COc1cccc2c1C(=O)c1c(O)c3c(c(O)c1C2=O)C[C@@](O)(C(=O)CO)C[C@@H]3O[C@H]1C[C@H](N)[C@H](O)[C@H](C)O1 [DOXORUBICIN] |  |  |
